How the values were obtained:
human keratinocytes = assay: Preservation of human skin in carbon monoxide, keratinocyte colony formation; type: cell-based
Experimental: Three human foreskins were obtained for this purpose. The foreskin tissue was preserved in keratinocyte growth medium (KGM) containing insulin, EGF (0.1 ng/ml), hydrocortisone ([…]) and bovine pituitary extract (approx. 50 micrograms/ml of protein). Foreskins were rinsed in PBS, and excess fatty tissue was removed. Each foreskin sample was divided into 2 equal pieces. Each piece was placed into a separate container containing a solution of PBS with 24 mg/ml of Dispase II (from Bacillus Polymyxa EC 3.4.24.4:Roche Diagnostics Corp., Indianapolis, Ind.). One container (containing a foreskin piece in PBS with Dispase II) was kept in a humid chamber in a fume hood. The other container (with the other half of the foreskin in PBS with Dispase II) was placed in the same fume hood in an environmental chamber perfused with humidified 100% CO. Both samples were maintained at room temperature for 24 hrs. Methods used to establish defined atmospheric conditions were identical to those used in Example 1.
Following the 24 hr exposure to normoxia or 100% CO, keratinocytes were isolated from the foreskins according to the method described by Boyce et al. (1983; 1985; each of which is incorporated herein by reference in its entirety). Briefly, the epidermis from each foreskin sample was removed to a fresh dish containing PBS. The epidermis was minced and homogenized prior to incubation in 3 ml of 0.05% Trypsin, 1 mM EDTA for 5 minutes, at room temperature, to separate basal cells from the epidermis. After incubation, 6 ml of 400 μg/ml (micrograms per ml) Soybean Trypsin Inhibitor, 1 mg/ml BSA was added and the samples were centrifuged at 900 RPM. The supernatant from each sample was discarded and the sample pellets were resuspended in 10 ml of KGM. Each sample was split into two 10 cm plates each of which contained 5 ml KGM and 100 μl of HEPES pH 7.3 (N-2-hydroxyethylpiperazine-N′-2-ethane sulfonic acid). The plates were incubated in a 37° C. incubator perfused with 95% room air, 5% carbon dioxide for five days.
Cells were inspected visually using an inverted phase contrast microscope. […] Quantitation of the number of viable keratinocytes as judged by colony formation was quantified for two of the three foreskins.

humans [1] = details: around 1000 ppm, more than around 1-2 minutes; cited from earlier work
C. elegans embryos = assay: Viability of nematodes in carbon monoxide based atmospheres; type: in vivo; details: for Viability to adulthood: 0.25 kPa O2/CO, 24 hrs
From the text: To achieve specific atmospheric conditions the following apparatus was used: a glass syringe barrel having a tip with a locking device such as a LUER-LOK with the large opening of the barrel sealed with a custom-machined steel and rubber fitting to make an airtight seal was locked to via locking device to the inlet port of an environmental chamber having an inlet and an outlet port each fitted with a locking devices such as a LUER-LOK fitting. A defined gas was humidified and provided to the environmental chamber by first venting the gas from a compressed tank (Byrne Specialty Gas, Seattle, Wash.) through a gas washing bottle (500 ml Kimex) filled with double distilled water. The gas washing bottle was connected to the environmental chamber past a gas-flow meter. A gas flow meter was used to provide a regulated 70 cc/min flow through the environmental chamber throughout the 24 hr incubation.
To test whether induced, reversible stasis could be achieved in C. elegans nematodes, 2-cell C. elegans embryos, L3 larvae or adult nematodes were collected and exposed to either an environment of effectively 100% CO, an environment of 100% N2, an environment comprising 500 ppm oxygen balanced with carbon monoxide, or to environments comprising 100, 500 or 1000 ppm oxygen balanced with nitrogen at room temperature. Nematodes were visualized using differential interference contrast microscopy (also known as Nomarski optics). Images were collected and analyzed using NIH image and Adobe Photoshop 5.5. Embryos are approximately 50 μm in length.
Environmental chambers and apparatuses. Oxygen deprivation experiments were carried out using a custom atmospheric chamber designed by W. Van Voorhies (Van Voorhies et al., 2000). The chamber is a 30 mL glass syringe (Fisher #14-825-10B) fitted with a custom steel stopper that is lined with two viton o-rings to ensure a tight seal. The stopper is bored through and has a steel lure lock on the exterior face so that a hose carrying compressed gas can be attached. A defined gas mixture is delivered to the chamber at a constant pressure and flow rate from compressed tanks by passing first through a rotometer (Aalborg, flow-tube number 032-41ST) or mass flow controller (Sierra Instruments #810) to monitor flow rate and then through a 500 ml gas washing bottle (Fisher #K28220-5001) containing 250 ml water to hydrate the gas. ¼″ OD nylon (Cole-Parmer #P-06489-06) or FEP (Cole-Parmer #A-06450-05) tubing was used and connections between tubing and the regulators and between the tubing and the rotometers were made with brass John-Guest-type fittings (Byrne Gas). All other connections were made with either microflow quick-connect fittings (Cole-Parmer #A-06363-57, #A-06363-52) or standard lure fittings (Cole-Parmer #A-06359-37, #A-06359-17).
Viability of nematodes in carbon monoxide based atmospheres. 30-60 embryos were harvested from continuously maintained Bristol N2 and hif-2(ia04) strains as described above. Environmental chambers were continuously perfused at room temperature with pure CO (grade CP) or 500 ppm O2/CO at 70 cc/min for 24 hrs. To achieve 2500 ppm O2/CO or 2500 ppm O2/N2, 5000 ppm O2/N2 was mixed at a 1:1 ratio with either pure CO or pure N2 using two mass flow controllers (Sierra Instruments 810) to precisely monitor flow. Each gas was delivered into a 3-way valve (Cole-Parmer #A-30600-23) at 50 cc/min and the resulting mixture was then passed through a gas washing bottle and into an environmental chamber throughout the 24 hour exposure. All gases were supplied by Byrne Gas (Seattle, Wash.). The 500 ppm O2/CO mixture was certified to 2% of the oxygen content and contained 7000 ppm N2 to ensure a consistent O2/CO ratio throughout the use of the tank.
Cell biological analysis. […]

mice [2] = details: 80 ppm, cited from earlier work
humans [3] = details: cited from earlier work
mice [4] = assay: Core body temperature, heart rate and movement of mice exposed to H2S (telemetry); type: in vivo, mouse
From the text: Implantation of telemetry devices.
(§1) Exposure of Mice to Regulated Atmosphere.
Regulation of Ambient Temperature. […] Mice were exposed to regulated atmosphere as described above.

rats = details: cited from earlier work
mice [5] = assay: Respirometry of mice exposed to H2S; type: in vivo, mouse
Experimental: as §1
Measurements were over a period of 15 minutes, with the mice in a 0.5 L sealed environmental chamber with flow rates of 500 cc/min. Consumption of oxygen is obtained by subtracting the oxygen concentration when the mouse is present, from the control when the mouse is absent. Likewise, production of carbon dioxide is obtained by subtracting the carbon dioxide concentration when the mouse is present from the control when the mouse is absent. RQ stands for respiratory quotient, and is equal to the ratio of carbon dioxide produced to oxygen […]. […] The change in the respiratory quotient reflects the disparity oxygen consumption and carbon dioxide production by the mice in the presence or absence of the H2S.

mice [6] = details: SHIRPA tests before and after exposure
[7] = warming phase after 80 ppm, cabinet 10.5° C.
[8] = 80 ppm, 15 minutes, 0.5 L chamber, 500 cc/min

## [C-]#[O+] [CO, Carbon monoxide]
Human keratinocytes; 100% CO, 24 hrs, human skin
  skin cell survival in CO versus room air: 100 fold
Human keratinocytes; Foreskin 1, 100% CO 24 hr
  Total colonies: 542 colonies (many of which
Human keratinocytes; Foreskin 2, 100% CO 24 hr
  Total colonies: 780 colonies (many of which
Human keratinocytes; foreskin 24 hr in 100% CO at room temperature, then five days culture, three foreskins
  growth of keratinocyte populations: significant growth
Humans [1]
  lethality: can expire
C. elegans embryos; 0.05 kPa O2 balanced with carbon monoxide
  embryogenesis during exposure: arrested embryogenesis
C. elegans embryos; hif-1(ia04) embryos
  Viability to adulthood: 83.9% ± 13.8
C. elegans embryos; wild-type (N2 strain) embryos
  Viability to adulthood: 78.7%
C. elegans embryos; 100% carbon monoxide, 24 hr, room temperature, nematodes
  lethality and suspended animation: not lethal and induced reversible suspended animation
C. elegans embryos; 101 kPa CO
  progression through embryogenesis during exposure: did not progress through embryogenesis
C. elegans embryos; 500 ppm oxygen balanced with carbon monoxide, 24 hr
  suspended animation and survival: entered into suspended animation and survived

## S [H2S, Hydrogen sulfide]
Mice [2]; 6 hrs per day, 5 days per week, 90 days
  adverse effects incl. gross and histopathological examination: no observed adverse effect
Mice [2]; exposures lasting up to ten weeks
  tolerability: innocuous
Humans [3]; atmosphere with 0.1% hydrogen sulfide
  acute effect of a single breath: immediately collapse
Humans [3]
  OSHA limit for humans: 10 ppm
Humans [3]; extreme levels (500 ppm)
  acute effect of exposure: sudden collapse and unconsciousness
Mice [4]; 80 ppm, 90 min, incubator lowered to 18° C., first mouse
  core temperature: 28.6 °C
Mice [4]; 80 ppm, 3 hrs, dropped from 600 bpm
  heart rate: 250 bpm
Mice [4]; 80 ppm, 3 hrs, incubator 18° C., second mouse
  core temperature: 18.6 °C
Mice [4]; 80 ppm, 6 hrs, seven mice
  recovery after rewarming in room air: successfully recovered
Mice [4]; 80 ppm, 6 hrs, seven mice, ambient temperature 13° C.
  lowest average core body temperature: 15 °C
Mice [4]; 80 ppm, ambient dropped to less than 10° C. (FIG. 7)
  lowest core body temperature recorded: 10.7 °C
Mice [4]; 80 ppm, cabinet 10° C., non-telemetry mouse
  time to recover activity after removal from gassing chamber: approximately 90 min
Mice [4]; 80 ppm, cabinet 10° C., telemetry mouse, electronics failed at 15.3° C.
  core temperature (estimation from slope of the drop): approximately 12.5 °C
Mice [4]; 80 ppm, cabinet 10.5° C., approximately six hours
  core body temperature: 10.5 °C
Mice [4]; after 90 min at 80 ppm, chamber perfused with room air
  time to return to normal range of core temperature and activity: ≤ 60 min
Mice [4]; maintained for 4 weeks after 6 hr at 80 ppm, 15° C.
  behavior of the animals after exposure: no apparent change in the behavior
Mice [4]; [7]
  core body temperature at which normal movement and respiration were fully apparent: 25 °C
  core body temperature at which weak respiration was observed: 14 °C
rats; 20 or 50 ppm, 7 hours per day, gestation through post-natal day 21, rats
  perinatal neurotoxicity: longer dendritic branches with reduced aborization of cerebellar Purkinje cells
rats; 80 ppm, 6 hrs per day, 5 days per week, 90 days, rats
  adverse effects incl. gross and histopathological examination: no observed adverse effect
rats; 80 ppm
  perinatal study, neuropathology and behavior of rat pups: no neuropathological effects
rats; moderate levels, immediately after end of exposure, rats
  discriminated avoidance responses: inhibits discriminated avoidance responses
rats; moderate levels, rats
  radial arm maze learning: interferes with the ability of rats to learn a baited radial arm maze task
Mice [5]; 80 ppm (FIG. 4A)
  decrease in CO2 production: approximately 3 fold
  time to decrease in CO2 production / new baseline: approximately 5 minutes
Mice [5]; [8]
  drop in carbon dioxide production: 3-4 fold
  drop in oxygen consumption: 2-3 fold
Mice [5]; 80 ppm, core temperature 15° C.
  decrease in cellular respiration: 1-20 fold
Mice [5]; H2S present (80 ppm)
  RQ: 0.58
Mice [5]; H2S present (80 ppm), control minus mouse present
  Consumption of oxygen: 1300 ppm
Mice [5]; mouse present, H2S present (80 ppm)
  [CO2] ppm: 750 ppm
Mice [6]
  behavioral differences after gas exposure: no detectable behavioral differences
